system: Erythrocyte; assay: Hemolytic activity in human RBC incubated for 4 hrs by visual analysis; assay type: toxicity, cell-based; details: not given

| Compound | MHC |
| --- | --- |
| CC(C)CC(NC(=O)C(CC(C)C)NC(=O)C(CC(C)C)NC(=O)C(CCCCN)NC(=O)C(CC(C)C)NC(=O)C(CC(C)C)NC(=O)C(CCCCN)NC(=O)C(CC(C)C)NC(=O)C(CC(C)C)NC(=O)C(CCCCN)NC(=O)C(N)CCCCN)C(N)=O (racemic) | 1000 µg/mL |
| CC(C)C[C@H](NC(=O)[C@H](CC(C)C)NC(=O)[C@H](CC(C)C)NC(=O)[C@@H](CCCCN)NC(=O)[C@@H](CC(C)C)NC(=O)[C@@H](CC(C)C)NC(=O)[C@@H](CCCCN)NC(=O)[C@@H](CC(C)C)NC(=O)[C@H](CC(C)C)NC(=O)[C@H](CCCCN)NC(=O)[C@@H](N)CCCCN)C(N)=O | 250 µg/mL |
| CC(C)C[C@H](NC(=O)[C@H](CC(C)C)NC(=O)[C@H](CC(C)C)NC(=O)[C@@H](CCCCN)NC(=O)[C@@H](CC(C)C)NC(=O)[C@@H](CC(C)C)NC(=O)[C@@H](CCCCN)NC(=O)[C@H](CC(C)C)NC(=O)[C@H](CC(C)C)NC(=O)[C@H](CCCCN)NC(=O)[C@@H](N)CCCCN)C(N)=O | 1000 µg/mL |
| CC(C)C[C@H](NC(=O)[C@@H](CC(C)C)NC(=O)[C@H](CC(C)C)NC(=O)[C@H](CCCCN)NC(=O)[C@@H](CC(C)C)NC(=O)[C@H](CC(C)C)NC(=O)[C@H](CCCCN)NC(=O)[C@@H](CC(C)C)NC(=O)[C@@H](CC(C)C)NC(=O)[C@H](CCCCN)NC(=O)[C@@H](N)CCCCN)C(N)=O | > 2000 µg/mL |
| CC(C)C[C@H](NC(=O)[C@@H](CC(C)C)NC(=O)[C@H](CCCCN)NC(=O)[C@@H](CC(C)C)NC(=O)[C@H](CC(C)C)NC(=O)[C@@H](CCCCN)NC(=O)[C@H](CC(C)C)NC(=O)[C@@H](CC(C)C)NC(=O)[C@H](CCCCN)NC(=O)[C@H](N)CCCCN)C(=O)N[C@H](CC(C)C)C(N)=O | > 2000 µg/mL |
| CC(C)CC(NC(=O)C(CC(C)C)NC(=O)C(CC(C)C)NC(=O)C(CCCCN)NC(=O)C(CC(C)C)NC(=O)[C@H](CC(C)C)NC(=O)C(CCCCN)NC(=O)C(CC(C)C)NC(=O)C(CC(C)C)NC(=O)C(CCCCN)NC(=O)C(N)CCCCN)C(N)=O (some centres not stated) | 2000 µg/mL |
| CC(C)C[C@H](NC(=O)[C@H](CC(C)C)NC(=O)[C@H](CC(C)C)NC(=O)[C@H](CCCCN)NC(=O)[C@H](CC(C)C)NC(=O)[C@H](CC(C)C)NC(=O)[C@@H](CCCCN)NC(=O)[C@H](CC(C)C)NC(=O)[C@H](CC(C)C)NC(=O)[C@@H](CCCCN)NC(=O)[C@H](N)CCCCN)C(N)=O | < 15.6 µg/mL |
| CC(C)C[C@H](NC(=O)[C@H](CC(C)C)NC(=O)[C@H](CC(C)C)NC(=O)[C@H](CCCCN)NC(=O)[C@H](CC(C)C)NC(=O)[C@@H](CC(C)C)NC(=O)[C@H](CCCCN)NC(=O)[C@@H](CC(C)C)NC(=O)[C@@H](CC(C)C)NC(=O)[C@@H](CCCCN)NC(=O)[C@@H](N)CCCCN)C(N)=O | 250 µg/mL |
| CC(C)C[C@H](NC(=O)[C@H](CC(C)C)NC(=O)[C@@H](CCCCN)NC(=O)[C@H](CC(C)C)NC(=O)[C@H](CC(C)C)NC(=O)[C@@H](CCCCN)NC(=O)[C@H](N)CCCCN)C(=O)N[C@@H](CCCCN)C(=O)N[C@@H](CC(C)C)C(=O)N[C@H](CC(C)C)C(=O)N[C@H](CC(C)C)C(N)=O | > 2000 µg/mL |
| CC(C)C[C@H](NC(=O)[C@H](CC(C)C)NC(=O)[C@H](CC(C)C)NC(=O)[C@H](CCCCN)NC(=O)[C@@H](CC(C)C)NC(=O)[C@@H](CC(C)C)NC(=O)[C@H](CCCCN)NC(=O)[C@H](CC(C)C)NC(=O)[C@H](CC(C)C)NC(=O)[C@H](CCCCN)NC(=O)[C@@H](N)CCCCN)C(N)=O | 500 µg/mL |
| CC(C)C[C@H](NC(=O)[C@H](CC(C)C)NC(=O)[C@H](CC(C)C)NC(=O)[C@H](CCCCN)NC(=O)[C@@H](CC(C)C)NC(=O)[C@@H](CC(C)C)NC(=O)[C@@H](CCCCN)NC(=O)[C@H](CC(C)C)NC(=O)[C@H](CC(C)C)NC(=O)[C@H](CCCCN)NC(=O)[C@@H](N)CCCCN)C(N)=O | 31.3 µg/mL |
| CC(C)C[C@H](NC(=O)[C@H](CC(C)C)NC(=O)[C@@H](CC(C)C)NC(=O)[C@@H](CCCCN)NC(=O)[C@H](CC(C)C)NC(=O)[C@H](CC(C)C)NC(=O)[C@@H](CCCCN)NC(=O)[C@@H](CC(C)C)NC(=O)[C@H](CC(C)C)NC(=O)[C@H](CCCCN)NC(=O)[C@@H](N)CCCCN)C(N)=O | 125 µg/mL |
| CC(C)C[C@H](NC(=O)[C@H](CCCCN)NC(=O)[C@H](N)CCCCN)C(=O)N[C@@H](CC(C)C)C(=O)N[C@H](CCCCN)C(=O)N[C@H](CC(C)C)C(=O)N[C@H](CC(C)C)C(=O)N[C@@H](CCCCN)C(=O)N[C@@H](CC(C)C)C(=O)N[C@@H](CC(C)C)C(=O)N[C@H](CC(C)C)C(N)=O | 1000 µg/mL |
| CC(C)C[C@H](NC(=O)[C@H](CC(C)C)NC(=O)[C@H](CC(C)C)NC(=O)[C@H](CCCCN)NC(=O)[C@@H](CC(C)C)NC(=O)[C@@H](CC(C)C)NC(=O)[C@H](CCCCN)NC(=O)[C@@H](CC(C)C)NC(=O)[C@@H](CC(C)C)NC(=O)[C@@H](CCCCN)NC(=O)[C@@H](N)CCCCN)C(N)=O | 250 µg/mL |
| CC(C)C[C@H](NC(=O)[C@@H](CC(C)C)NC(=O)[C@H](CC(C)C)NC(=O)[C@@H](CCCCN)NC(=O)[C@H](CC(C)C)NC(=O)[C@@H](CC(C)C)NC(=O)[C@H](CCCCN)NC(=O)[C@@H](CC(C)C)NC(=O)[C@H](CC(C)C)NC(=O)[C@@H](CCCCN)NC(=O)[C@@H](N)CCCCN)C(N)=O | > 2000 µg/mL |
| CC(C)C[C@@H](NC(=O)[C@@H](CC(C)C)NC(=O)[C@@H](CC(C)C)NC(=O)[C@@H](CCCCN)NC(=O)[C@@H](CC(C)C)NC(=O)[C@@H](CC(C)C)NC(=O)[C@@H](CCCCN)NC(=O)[C@@H](CC(C)C)NC(=O)[C@@H](CC(C)C)NC(=O)[C@@H](CCCCN)NC(=O)[C@H](N)CCCCN)C(N)=O | 125 µg/mL |
| CC(C)C[C@H](NC(=O)[C@H](CCCCN)NC(=O)[C@H](CC(C)C)NC(=O)[C@H](CC(C)C)NC(=O)[C@@H](CCCCN)NC(=O)[C@H](CC(C)C)NC(=O)[C@H](CC(C)C)NC(=O)[C@@H](CCCCN)NC(=O)[C@H](N)CCCCN)C(=O)N[C@@H](CC(C)C)C(=O)N[C@H](CC(C)C)C(N)=O | 1000 µg/mL |
| CC(C)C[C@H](NC(=O)[C@@H](CC(C)C)NC(=O)[C@@H](CC(C)C)NC(=O)[C@H](CCCCN)NC(=O)[C@H](CC(C)C)NC(=O)[C@H](CC(C)C)NC(=O)[C@H](CCCCN)NC(=O)[C@H](CC(C)C)NC(=O)[C@@H](CC(C)C)NC(=O)[C@@H](CCCCN)NC(=O)[C@@H](N)CCCCN)C(N)=O | 1000 µg/mL |
| CC(C)C[C@H](NC(=O)[C@H](CC(C)C)NC(=O)[C@@H](CC(C)C)NC(=O)[C@H](CCCCN)NC(=O)[C@@H](CC(C)C)NC(=O)[C@@H](CC(C)C)NC(=O)[C@H](CCCCN)NC(=O)[C@@H](CC(C)C)NC(=O)[C@@H](CC(C)C)NC(=O)[C@H](CCCCN)NC(=O)[C@@H](N)CCCCN)C(N)=O | > 2000 µg/mL |
| CC(C)C[C@H](NC(=O)[C@H](CC(C)C)NC(=O)[C@@H](CCCCN)NC(=O)[C@H](CC(C)C)NC(=O)[C@H](CC(C)C)NC(=O)[C@@H](CCCCN)NC(=O)[C@H](CC(C)C)NC(=O)[C@H](CC(C)C)NC(=O)[C@@H](CCCCN)NC(=O)[C@H](N)CCCCN)C(=O)N[C@H](CC(C)C)C(N)=O | > 2000 µg/mL |
| CC(C)C[C@H](NC(=O)[C@H](CC(C)C)NC(=O)[C@@H](CC(C)C)NC(=O)[C@@H](CCCCN)NC(=O)[C@H](CC(C)C)NC(=O)[C@H](CC(C)C)NC(=O)[C@H](CCCCN)NC(=O)[C@@H](CC(C)C)NC(=O)[C@@H](CC(C)C)NC(=O)[C@H](CCCCN)NC(=O)[C@@H](N)CCCCN)C(N)=O | 1000 µg/mL |
| CC(C)C[C@H](NC(=O)[C@H](CC(C)C)NC(=O)[C@@H](CC(C)C)NC(=O)[C@H](CCCCN)NC(=O)[C@H](CC(C)C)NC(=O)[C@@H](CC(C)C)NC(=O)[C@H](CCCCN)NC(=O)[C@H](CC(C)C)NC(=O)[C@@H](CC(C)C)NC(=O)[C@@H](CCCCN)NC(=O)[C@@H](N)CCCCN)C(N)=O | > 2000 µg/mL |
| CC(C)C[C@H](NC(=O)[C@H](CCCCN)NC(=O)[C@H](CC(C)C)NC(=O)[C@H](CC(C)C)NC(=O)[C@@H](CCCCN)NC(=O)[C@H](N)CCCCN)C(=O)N[C@@H](CC(C)C)C(=O)N[C@@H](CCCCN)C(=O)N[C@@H](CC(C)C)C(=O)N[C@H](CC(C)C)C(=O)N[C@H](CC(C)C)C(N)=O | 1000 µg/mL |
| CC(C)C[C@H](NC(=O)[C@H](CC(C)C)NC(=O)[C@H](CC(C)C)NC(=O)[C@@H](CCCCN)NC(=O)[C@H](CC(C)C)NC(=O)[C@H](CC(C)C)NC(=O)[C@@H](CCCCN)NC(=O)[C@H](CC(C)C)NC(=O)[C@H](CC(C)C)NC(=O)[C@@H](CCCCN)NC(=O)[C@H](N)CCCCN)C(N)=O | 1000 µg/mL |
| CC(C)C[C@H](NC(=O)[C@H](CC(C)C)NC(=O)[C@@H](CC(C)C)NC(=O)[C@H](CCCCN)NC(=O)[C@@H](CC(C)C)NC(=O)[C@H](CC(C)C)NC(=O)[C@@H](CCCCN)NC(=O)[C@H](CC(C)C)NC(=O)[C@@H](CC(C)C)NC(=O)[C@H](CCCCN)NC(=O)[C@@H](N)CCCCN)C(N)=O | > 2000 µg/mL |
| CC(C)C[C@H](NC(=O)[C@H](CC(C)C)NC(=O)[C@@H](CCCCN)NC(=O)[C@H](CC(C)C)NC(=O)[C@H](CC(C)C)NC(=O)[C@@H](CCCCN)NC(=O)[C@@H](CC(C)C)NC(=O)[C@H](CC(C)C)NC(=O)[C@H](CCCCN)NC(=O)[C@@H](N)CCCCN)C(=O)N[C@H](CC(C)C)C(N)=O | > 2000 µg/mL |
| CC(C)C[C@H](NC(=O)[C@H](CC(C)C)NC(=O)[C@H](CC(C)C)NC(=O)[C@H](CCCCN)NC(=O)[C@@H](CC(C)C)NC(=O)[C@@H](CC(C)C)NC(=O)[C@H](CCCCN)NC(=O)[C@@H](CC(C)C)NC(=O)[C@@H](CC(C)C)NC(=O)[C@H](CCCCN)NC(=O)[C@@H](N)CCCCN)C(N)=O | 1000 µg/mL |
| CC(C)C[C@H](NC(=O)[C@H](CC(C)C)NC(=O)[C@H](CC(C)C)NC(=O)[C@H](CCCCN)NC(=O)[C@H](CC(C)C)NC(=O)[C@H](CC(C)C)NC(=O)[C@@H](CCCCN)NC(=O)[C@H](CC(C)C)NC(=O)[C@H](CC(C)C)NC(=O)[C@@H](CCCCN)NC(=O)[C@@H](N)CCCCN)C(N)=O | < 15.6 µg/mL |

system: not listed separately; assay: Induction of membrane disruption in eukaryotic inner membrane mimic EYPC vesicles assessed as carboxyfluorescein leakage at 10 ug/ml measured after 240 secs by fluorescence based assay; assay type: cell membranes; details: dose 10.0 µg/ml, time 240.0 sec

| Compound | Activity |
| --- | --- |
| CC(C)C[C@H](NC(=O)[C@H](CC(C)C)NC(=O)[C@@H](CC(C)C)NC(=O)[C@@H](CCCCN)NC(=O)[C@H](CC(C)C)NC(=O)[C@H](CC(C)C)NC(=O)[C@@H](CCCCN)NC(=O)[C@@H](CC(C)C)NC(=O)[C@H](CC(C)C)NC(=O)[C@H](CCCCN)NC(=O)[C@@H](N)CCCCN)C(N)=O | 2% |
| CC(C)C[C@H](NC(=O)[C@H](CCCCN)NC(=O)[C@H](N)CCCCN)C(=O)N[C@@H](CC(C)C)C(=O)N[C@H](CCCCN)C(=O)N[C@H](CC(C)C)C(=O)N[C@H](CC(C)C)C(=O)N[C@@H](CCCCN)C(=O)N[C@@H](CC(C)C)C(=O)N[C@@H](CC(C)C)C(=O)N[C@H](CC(C)C)C(N)=O | 3% |
| CC(C)C[C@H](NC(=O)[C@H](CC(C)C)NC(=O)[C@@H](CC(C)C)NC(=O)[C@H](CCCCN)NC(=O)[C@@H](CC(C)C)NC(=O)[C@@H](CC(C)C)NC(=O)[C@H](CCCCN)NC(=O)[C@@H](CC(C)C)NC(=O)[C@@H](CC(C)C)NC(=O)[C@H](CCCCN)NC(=O)[C@@H](N)CCCCN)C(N)=O | 4% |
| CC(C)C[C@H](NC(=O)[C@H](CC(C)C)NC(=O)[C@@H](CC(C)C)NC(=O)[C@H](CCCCN)NC(=O)[C@@H](CC(C)C)NC(=O)[C@H](CC(C)C)NC(=O)[C@@H](CCCCN)NC(=O)[C@H](CC(C)C)NC(=O)[C@@H](CC(C)C)NC(=O)[C@H](CCCCN)NC(=O)[C@@H](N)CCCCN)C(N)=O | 3% |
